Reference: ChEMBL document CHEMBL1275333, “Identification of non-peptide malignant brain tumor (MBT) repeat antagonists by virtual screening of commercially available compounds” (J Med Chem, 2010)
pIC50: −log10 of the molar value.

Key:
[1] = biological target: T1, Lethal(3)malignant brain tumor-like protein 1 (Homo sapiens, UniProt Q9Y468); experiment: Inhibition of L3MBTL1 by alpha-screening
T1 sequence (Q9Y468 whole entry): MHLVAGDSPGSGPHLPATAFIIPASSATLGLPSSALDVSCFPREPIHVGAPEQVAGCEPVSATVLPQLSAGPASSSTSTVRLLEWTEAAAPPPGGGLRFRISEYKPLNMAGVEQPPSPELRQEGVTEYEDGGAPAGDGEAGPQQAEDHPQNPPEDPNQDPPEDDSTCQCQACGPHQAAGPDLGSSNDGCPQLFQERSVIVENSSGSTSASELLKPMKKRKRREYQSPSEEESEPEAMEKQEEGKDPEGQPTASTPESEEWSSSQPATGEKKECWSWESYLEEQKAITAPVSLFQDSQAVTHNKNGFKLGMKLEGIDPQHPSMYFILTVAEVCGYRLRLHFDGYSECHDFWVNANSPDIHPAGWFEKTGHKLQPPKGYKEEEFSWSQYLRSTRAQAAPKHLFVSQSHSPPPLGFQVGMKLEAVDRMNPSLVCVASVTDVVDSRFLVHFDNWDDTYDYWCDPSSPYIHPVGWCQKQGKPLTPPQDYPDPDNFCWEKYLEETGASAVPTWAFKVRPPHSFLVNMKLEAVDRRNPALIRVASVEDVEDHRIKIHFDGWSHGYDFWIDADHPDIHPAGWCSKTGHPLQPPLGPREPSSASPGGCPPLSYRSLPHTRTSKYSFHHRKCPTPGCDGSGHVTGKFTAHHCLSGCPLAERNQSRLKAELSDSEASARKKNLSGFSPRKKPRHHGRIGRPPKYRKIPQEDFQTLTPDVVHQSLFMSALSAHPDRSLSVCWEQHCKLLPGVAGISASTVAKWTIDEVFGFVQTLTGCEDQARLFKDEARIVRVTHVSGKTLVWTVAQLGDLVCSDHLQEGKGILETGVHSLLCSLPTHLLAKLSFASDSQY

[2] = biological target: T2, Lethal(3)malignant brain tumor-like protein 4 (Homo sapiens, UniProt Q8NA19); experiment: Inhibition of L3MBTL4 by alpha-screening
T2 sequence (Q8NA19 whole entry): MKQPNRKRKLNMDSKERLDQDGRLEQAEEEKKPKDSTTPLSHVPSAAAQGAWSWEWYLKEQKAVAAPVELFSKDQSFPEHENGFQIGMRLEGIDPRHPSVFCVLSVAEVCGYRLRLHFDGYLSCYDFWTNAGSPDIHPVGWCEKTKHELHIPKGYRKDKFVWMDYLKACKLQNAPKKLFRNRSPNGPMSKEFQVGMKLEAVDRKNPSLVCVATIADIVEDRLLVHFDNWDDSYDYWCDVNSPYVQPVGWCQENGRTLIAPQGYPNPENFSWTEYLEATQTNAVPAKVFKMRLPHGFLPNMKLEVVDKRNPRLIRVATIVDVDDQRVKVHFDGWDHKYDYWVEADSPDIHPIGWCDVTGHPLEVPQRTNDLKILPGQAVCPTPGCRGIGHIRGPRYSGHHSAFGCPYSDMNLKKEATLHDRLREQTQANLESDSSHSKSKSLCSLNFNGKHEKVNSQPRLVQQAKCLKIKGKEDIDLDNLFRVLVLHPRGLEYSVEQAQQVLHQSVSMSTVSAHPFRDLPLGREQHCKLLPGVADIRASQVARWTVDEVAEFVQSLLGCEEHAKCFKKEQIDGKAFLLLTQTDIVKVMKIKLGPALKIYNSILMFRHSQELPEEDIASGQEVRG

[3] = biological target: MBT domain-containing protein 1 (Homo sapiens, UniProt Q05BQ5); experiment: Inhibition of MBTD1 by alpha-screening
[4] = biological target: T3, Lethal(3)malignant brain tumor-like protein 3 (Homo sapiens, UniProt Q96JM7); experiment: Inhibition of L3MBTL3 by alpha-screening
T3 sequence (Q96JM7 whole entry): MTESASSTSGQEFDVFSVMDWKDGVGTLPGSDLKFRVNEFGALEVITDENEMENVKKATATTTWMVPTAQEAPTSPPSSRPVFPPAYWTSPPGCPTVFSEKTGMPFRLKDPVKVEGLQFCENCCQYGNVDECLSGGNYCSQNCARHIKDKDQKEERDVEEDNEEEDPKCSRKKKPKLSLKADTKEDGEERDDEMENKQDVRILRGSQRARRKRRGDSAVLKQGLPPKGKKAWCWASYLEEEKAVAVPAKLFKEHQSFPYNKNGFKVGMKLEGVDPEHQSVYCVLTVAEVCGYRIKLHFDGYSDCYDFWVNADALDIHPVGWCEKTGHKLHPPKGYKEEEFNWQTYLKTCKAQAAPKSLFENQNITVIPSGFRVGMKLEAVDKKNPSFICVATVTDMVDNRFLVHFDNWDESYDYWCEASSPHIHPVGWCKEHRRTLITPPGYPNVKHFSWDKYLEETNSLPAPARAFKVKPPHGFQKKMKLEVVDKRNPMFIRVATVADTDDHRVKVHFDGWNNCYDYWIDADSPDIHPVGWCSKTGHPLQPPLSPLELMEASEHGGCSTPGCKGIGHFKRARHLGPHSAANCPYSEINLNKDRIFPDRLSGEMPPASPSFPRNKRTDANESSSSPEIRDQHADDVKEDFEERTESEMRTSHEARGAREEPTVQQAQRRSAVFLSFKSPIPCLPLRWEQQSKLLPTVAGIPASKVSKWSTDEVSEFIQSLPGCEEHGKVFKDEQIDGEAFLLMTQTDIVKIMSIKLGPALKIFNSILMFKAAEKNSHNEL

[5] = AlphaScreen counterscreen signal interference at 100 uM

Chain of MBT domain-containing protein 1 (Q05BQ5 whole entry, the tested form may be a part): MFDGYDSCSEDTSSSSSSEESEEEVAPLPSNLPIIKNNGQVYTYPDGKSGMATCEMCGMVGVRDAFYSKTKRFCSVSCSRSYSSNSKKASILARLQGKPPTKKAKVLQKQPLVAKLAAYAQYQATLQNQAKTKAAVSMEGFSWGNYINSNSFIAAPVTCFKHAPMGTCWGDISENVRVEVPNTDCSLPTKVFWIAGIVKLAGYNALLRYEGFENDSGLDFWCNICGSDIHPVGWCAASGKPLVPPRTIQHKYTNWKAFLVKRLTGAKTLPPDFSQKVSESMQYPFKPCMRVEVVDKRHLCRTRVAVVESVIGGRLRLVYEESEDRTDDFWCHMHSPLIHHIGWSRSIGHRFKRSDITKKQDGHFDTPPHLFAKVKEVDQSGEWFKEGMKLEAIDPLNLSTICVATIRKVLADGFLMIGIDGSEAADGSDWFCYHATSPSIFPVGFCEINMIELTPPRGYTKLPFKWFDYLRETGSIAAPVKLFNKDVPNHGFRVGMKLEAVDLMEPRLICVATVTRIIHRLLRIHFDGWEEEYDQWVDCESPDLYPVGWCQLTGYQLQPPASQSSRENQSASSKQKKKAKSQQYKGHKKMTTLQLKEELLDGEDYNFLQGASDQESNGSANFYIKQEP

SMILES: CNCCCC1Sc2ccccc2Oc2ccccc21 (stereo unspecified)
- pIC50 [1]: 4.85
- pIC50 [2]: < 4.00
- pIC50 [3]: < 4.00

SMILES: CNCCCCOc1ccc(Cc2ccccc2)cc1
- pIC50 [1]: 4.04
- pIC50 [4]: < 4.00
- pIC50 [2]: < 4.00
- pIC50 [3]: < 4.00
- Activity [5]: 8%

SMILES: CNCCC1OC(c2ccc(Cl)cc2)Cc2ccccc21 (stereo unspecified)
- pIC50 [2]: 4.11
- pIC50 [3]: < 4.00

SMILES: Cc1ncc(CCCCN(C)C)c2c1[nH]c1ccccc12
- pIC50 [1]: 4.68
- pIC50 [4]: 5.24
- pIC50 [2]: < 4.00
- pIC50 [3]: 4.14
- Activity [5]: 15%

SMILES: CNCCCCc1ccccc1
- pIC50 [1]: 4.17
- pIC50 [4]: < 4.00
- pIC50 [2]: < 4.00
- pIC50 [3]: < 4.00
- Activity [5]: 5%

SMILES: CN(C)CCC(=O)c1cc2c(cc1Br)OCCCO2
- pIC50 [1]: < 4.00
- pIC50 [4]: < 4.00
- pIC50 [2]: 4.92
- pIC50 [3]: < 4.00
- Activity [5]: 35%

SMILES: CN(C)CCC(c1ccc(Cl)cc1)c1ccccn1 (stereo unspecified) [CHLORPHENIRAMINE]
- pIC50 [3]: 4.47

SMILES: CN(C)CCCNC(=O)C1(O)c2cc(Br)ccc2NC(=O)N1c1ccc(Cl)cc1 (stereo unspecified)
- pIC50 [1]: 4.28
- pIC50 [2]: < 4.00
- pIC50 [3]: 4.43
- Activity [5]: 3%

SMILES: CNCC1CCN(CCc2ccc(Cl)cc2)CC1
- pIC50 [1]: 4.16
- pIC50 [2]: < 4.00
- pIC50 [3]: < 4.00

SMILES: CCN(CC)CCCNS(=O)(=O)c1cc(OC)ccc1OC
- pIC50 [1]: < 4.00
- pIC50 [4]: 4.32
- pIC50 [2]: < 4.00
- pIC50 [3]: < 4.00
- Activity [5]: -6%

SMILES: CNCCCC(C#N)(c1ccccc1C)C(C)C (stereo unspecified)
- pIC50 [1]: 4.74
- pIC50 [4]: < 4.00
- pIC50 [2]: < 4.00
- pIC50 [3]: < 4.00
- Activity [5]: 3%

SMILES: CCN(CC)CC#CCOC(=O)C(O)(c1ccccc1)C1CCCCC1 (stereo unspecified) [OXYBUTYNIN]
- pIC50 [1]: < 4.00
- pIC50 [2]: < 4.00
- pIC50 [3]: < 4.00

SMILES: Cc1ccc(S(=O)(=O)NCCCN2CCCC2)cc1
- pIC50 [1]: 4.77
- pIC50 [2]: < 4.00
- pIC50 [3]: 4.23

SMILES: CNCCCCOc1ccc(C)cc1OC
- pIC50 [1]: < 4.00
- pIC50 [4]: 4.08
- pIC50 [2]: 4.04
- pIC50 [3]: < 4.00
- Activity [5]: 30%

SMILES: CCN(CC)CCCNS(=O)(=O)c1ccc(F)c(Cl)c1
- pIC50 [1]: < 4.00
- pIC50 [2]: < 4.00
- pIC50 [3]: < 4.00
- Activity [5]: 8%

SMILES: CCc1cc(OCCCCNC)ccc1Cl
- pIC50 [1]: 4.02
- pIC50 [2]: < 4.00
- pIC50 [3]: < 4.00

SMILES: CC(CCN(C)C)OC(=O)c1ccc(C(C)c2ccccc2)o1 (stereo unspecified)
- pIC50 [1]: 4.08
- pIC50 [4]: 4.12
- pIC50 [2]: < 4.00
- pIC50 [3]: 4.18
- Activity [5]: 22%
